The record followed here is patent publication US5866717A, “Metalloproteinase inhibitors” (British Biotech Pharmaceuticals Limited, priority 1994, dated 1999).

≈ marks a conversion by molar mass, not a printed value.

One data set is described as follows: aqueous solubility. It counts as physicochemical. Conditions: for solubility: water, read-out: Aq. solubility.
Another data set deals with Stromelysin-1 (Homo sapiens, UniProt P08254). The data set can be described thus: biochemical.
The next data set addresses T1, Getatinase A (Homo sapiens, UniProt P08253).
T1 sequence (P08253 110-660): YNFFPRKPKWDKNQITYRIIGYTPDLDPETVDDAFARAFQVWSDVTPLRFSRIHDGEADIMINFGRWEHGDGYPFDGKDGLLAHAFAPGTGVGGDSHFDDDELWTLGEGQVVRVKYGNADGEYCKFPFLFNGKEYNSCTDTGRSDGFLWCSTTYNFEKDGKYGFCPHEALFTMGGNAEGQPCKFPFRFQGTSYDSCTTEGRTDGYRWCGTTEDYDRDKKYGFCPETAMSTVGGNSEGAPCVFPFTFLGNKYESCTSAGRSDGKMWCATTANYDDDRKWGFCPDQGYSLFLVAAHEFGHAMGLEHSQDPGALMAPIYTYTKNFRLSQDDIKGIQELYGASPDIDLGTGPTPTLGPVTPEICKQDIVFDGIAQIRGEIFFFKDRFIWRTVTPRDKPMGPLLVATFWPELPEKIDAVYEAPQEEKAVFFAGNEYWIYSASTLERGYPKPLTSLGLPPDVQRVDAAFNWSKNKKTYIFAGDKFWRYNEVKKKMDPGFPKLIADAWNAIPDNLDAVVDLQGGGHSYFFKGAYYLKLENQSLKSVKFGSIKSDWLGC
The data set can be described thus: biochemical.

Data set [1] addresses T2, Human fibroblast collagenase (Homo sapiens, UniProt P03956).
T2 sequence (P03956 100-469): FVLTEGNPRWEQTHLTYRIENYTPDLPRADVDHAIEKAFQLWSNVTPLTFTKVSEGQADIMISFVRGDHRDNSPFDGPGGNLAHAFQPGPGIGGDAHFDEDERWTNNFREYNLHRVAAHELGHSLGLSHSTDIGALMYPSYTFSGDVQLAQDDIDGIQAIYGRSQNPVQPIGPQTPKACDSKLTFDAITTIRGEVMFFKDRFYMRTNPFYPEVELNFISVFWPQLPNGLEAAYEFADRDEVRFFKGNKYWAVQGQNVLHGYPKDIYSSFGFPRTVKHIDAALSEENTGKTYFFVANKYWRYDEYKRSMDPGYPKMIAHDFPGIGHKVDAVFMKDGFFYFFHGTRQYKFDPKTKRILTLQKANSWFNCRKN
The data set can be described thus: biochemical.

The nature of data set [2]: effective blood concentrations after oral administration. The format is in vivo. The following applies: no data given.

Sequence of Stromelysin-1 (P08254 100-477, species assumed): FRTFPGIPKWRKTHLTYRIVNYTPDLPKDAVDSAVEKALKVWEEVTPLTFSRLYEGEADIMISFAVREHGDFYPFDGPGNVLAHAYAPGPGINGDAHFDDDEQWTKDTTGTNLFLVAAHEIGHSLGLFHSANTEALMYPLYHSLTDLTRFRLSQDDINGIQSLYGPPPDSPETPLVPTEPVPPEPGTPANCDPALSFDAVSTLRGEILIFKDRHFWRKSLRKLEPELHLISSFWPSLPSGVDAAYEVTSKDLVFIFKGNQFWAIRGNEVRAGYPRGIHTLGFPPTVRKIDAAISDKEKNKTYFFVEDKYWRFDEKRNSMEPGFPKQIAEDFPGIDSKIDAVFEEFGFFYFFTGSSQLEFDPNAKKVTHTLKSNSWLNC

With `CNC(=O)[C@@H](NC(=O)[C@H](CC(C)C)C(CSc1cccs1)C(=O)NO)C(C)(C)C` (stereo partly drawn) [Comparator 3, N^1-(2,2-Dimethyl-1S-methylcarbamoyl-propyl)-N^4-hydroxy-2R -isobutyl-3-(thiophen-2-yl-sulfanylmethyl)-succinamide, reference compound], the solubility in the data set “aqueous solubility” was 180 µg/mL (≈ 406 µM). Also, the IC50 is 40 nM on Stromelysin-1, 20 nM against Getatinase A and 1 nM in data set [1].

Turning to `C=CC[C@H](C(=O)NO)[C@@H](CC(C)C)C(=O)N[C@H](C(=O)NC)C(C)(C)C` [Comparator 2, 2S-Allyl-N^4-(2,2-Dimethyl-1S-methylcarbamoyl-propyl)-N^4-hydroxy-3R-isobutyl-succinamide, reference compound], in “aqueous solubility”, the solubility was 40 µg/mL (≈ 113 µM). Besides, the IC50 on Getatinase A turned out to be 15 nM; in data set [1] it was 4 nM.

Consider `C=CC[C@H](C(=O)NO)[C@@H](CC(C)C)C(=O)N[C@H](C(=O)NCC(C)(COC)COC)C(C)(C)C` [Example 6, 2S-Allyl-N^4 -{1S-[2,2-di-(methoxymethyl)-propylcarbamoyl}-2,2-dimethyl-propyl]-N^1-hydroxy-3R-isobutyl-succinamide], for which, in the data set “aqueous solubility”, the solubility was determined as 400 µg/mL (≈ 848 µM). Besides, the IC50 on Stromelysin-1 came to 50 nM; against Getatinase A, 30 nM; in data set [1] it was 20 nM.

On to `CNC(=O)[C@@H](NC(=O)[C@H](CC(C)C)[C@H](O)C(=O)NO)C(C)(C)C` [Comparator 1, N^4-(2,2-Dimethyl-1S-methylcarbamoyl-propyl)-2S, N^1-dihydroxy-3R -isobutyl-succinamide, reference compound], for which the solubility in the data set “aqueous solubility” came out at 7700 µg/mL (≈ 23200 µM).

In the case of `C=CC[C@H](C(=O)NO)[C@@H](CC(C)C)C(=O)N[C@H](C(=O)NCCOCCOC)C(C)(C)C` [Example 4, 2S-Allyl-N^1-hydroxy-3R-isobutyl-N^4 -{1S-[2-(2-methoxy-ethoxy)-ethylcarbamoyl]-2,2-dimethyl-propyl}-succinamid], the “effective blood concentrations (in words)” value in data set [2] was “high and prolonged effective blood concentrations”. Moreover, the “aqueous solubility (in words)” value in the data set “aqueous solubility” (presently preferred compound) was “good aqueous solubility”. Moreover, the solubility in the data set “aqueous solubility” stood at 4700 µg/mL (≈ 10600 µM). Besides, the IC50 against Stromelysin-1 is 40 nM; against Getatinase A, 7 nM; in data set [1], 1 nM.

Regarding `COCCOCOCCNC(=O)[C@@H](NC(=O)[C@H](CC(C)C)[C@H](O)C(=O)NO)C(C)(C)C` [Example 1, 2S, N^1 -Dihydroxy-3R-isobutyl-N^4 -{1S-[2-(2-methoxy-ethoxymethoxy)-ethylcarbamoyl]-2,2-dimethyl-propyl}-succinamide], in “aqueous solubility”, the solubility is at least 29600 µg/mL. Also, the results for the IC50 (against Stromelysin-1; against Getatinase A; in data set [1]) were 60 nM, 15 nM and 10 nM, respectively.

For `COCCOCCOCCNC(=O)[C@@H](NC(=O)[C@H](CC(C)C)[C@H](CSc1cccs1)C(=O)NO)C(C)(C)C` [Example 9, N^4 -Hydroxy-2R-isobutyl-N^1-(1S{2-[2-(2-methoxy-ethoxy)-ethoxy]-ethylcarbamoyl}-2,2-dimethyl-propyl)-3S-(thiophen-2-yl-sulfanylmethyl)-succinamide], the solubility in “aqueous solubility” was determined as 400 µg/mL (≈ 695 µM). Also, the IC50 stood at 10 nM on Stromelysin-1, 9 nM at Getatinase A and 2 nM in data set [1].

Broadly, the solubility is the dissolved amount per volume that the medium holds. In general, IC50 refers to the concentration that gives 50% inhibition. A high value points to a need for much substance.
